One experiment concerns the target Neutrophil collagenase (Homo sapiens, UniProt P22894). Nature of the experiment: Inhibitory concentration against human matrix metalloprotease-8 (human neutrophil collagenase, MMP-8).
The nature of experiment [1]: Affinity ratio of IC50 of MMP-8 to IC50 of MMP-3.
A further experiment concerns the target Stromelysin-1 (Homo sapiens, UniProt P08254). Nature of the experiment: Inhibitory concentration against human matrix metalloprotease-3 (MMP-3).
Experiment [2] in a line: Affinity ratio of IC50 of MMP-3 to IC50 of MMP-8.

For 13 compounds, IC50, Selectivity and log10(IC50 MMP-3/IC50 MMP-8) results are on record in ChEMBL document CHEMBL1132460, “Affinity and selectivity of matrix metalloproteinase inhibitors: a chemometrical study from the perspective of ligands and proteins” (J Med Chem, 1999).

Chain of Neutrophil collagenase (P22894 whole entry): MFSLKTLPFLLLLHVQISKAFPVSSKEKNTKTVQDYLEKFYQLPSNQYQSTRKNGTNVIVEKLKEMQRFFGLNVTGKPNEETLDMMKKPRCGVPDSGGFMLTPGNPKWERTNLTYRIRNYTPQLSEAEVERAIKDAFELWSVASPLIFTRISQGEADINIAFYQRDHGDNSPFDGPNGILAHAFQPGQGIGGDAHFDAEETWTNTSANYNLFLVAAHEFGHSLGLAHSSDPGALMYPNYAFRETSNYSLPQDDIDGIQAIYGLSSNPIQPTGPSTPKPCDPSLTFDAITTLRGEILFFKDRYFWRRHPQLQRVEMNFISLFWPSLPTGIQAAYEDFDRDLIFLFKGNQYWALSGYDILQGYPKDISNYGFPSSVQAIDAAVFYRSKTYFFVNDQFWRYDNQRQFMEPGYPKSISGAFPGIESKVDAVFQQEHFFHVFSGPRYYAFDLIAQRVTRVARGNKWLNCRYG
Chain of Stromelysin-1 (P08254 whole entry): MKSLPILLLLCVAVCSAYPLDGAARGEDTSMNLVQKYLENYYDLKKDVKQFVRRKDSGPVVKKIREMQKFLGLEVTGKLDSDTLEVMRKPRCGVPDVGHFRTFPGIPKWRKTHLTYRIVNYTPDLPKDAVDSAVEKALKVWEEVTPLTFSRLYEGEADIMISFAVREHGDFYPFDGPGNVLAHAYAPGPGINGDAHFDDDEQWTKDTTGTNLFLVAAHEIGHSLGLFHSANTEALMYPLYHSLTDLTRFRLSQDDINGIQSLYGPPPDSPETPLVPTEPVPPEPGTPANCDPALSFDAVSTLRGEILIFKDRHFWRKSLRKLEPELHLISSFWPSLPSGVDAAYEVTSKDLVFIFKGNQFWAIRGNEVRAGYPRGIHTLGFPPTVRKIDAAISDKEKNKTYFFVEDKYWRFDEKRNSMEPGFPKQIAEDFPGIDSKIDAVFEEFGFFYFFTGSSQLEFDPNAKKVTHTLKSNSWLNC

As to `CC(C)(C)OC(=O)Nc1ccc2c(c1)CC(C(=O)O)N(S(=O)(=O)c1ccc(-c3ccc(F)cc3)cc1)C2` (configuration not stated), the IC50 against Neutrophil collagenase was 30 nM; at Stromelysin-1 (read-out: IC50), 400 nM. Further, the Selectivity in experiment [1] came out at 1.12.
Take `COc1ccc(S(=O)(=O)N2Cc3cc(O)ccc3CC2C(=O)O)cc1` (configuration not stated): the IC50 against Neutrophil collagenase came out at 3000 nM; at Stromelysin-1 it was 10000 nM l-1. For the same compound, the Selectivity in experiment [1] is 0.52.
In the case of `COc1ccc(S(=O)(=O)N2Cc3cc(NC(=O)[C@H](C)N)ccc3CC2C(=O)O)cc1` (some centres not stated), the figures for the IC50 against Neutrophil collagenase and at Stromelysin-1 were 2000 nM and 10000 nM l-1, respectively. For the same compound, the Selectivity in experiment [1] amounted to 0.7.
For `COc1ccc(S(=O)(=O)N2Cc3cc(N)ccc3CC2C(=O)O)cc1` (configuration not stated), in that order: 2000 nM, 10000 nM l-1 and 0.7.
For `O=C(O)[C@H]1Cc2ccccc2CN1S(=O)(=O)c1ccc(-c2ccc(F)cc2)cc1`, the Selectivity in experiment [1] was 1.3. For the same compound, the IC50 on Stromelysin-1 (read-out: IC50) stood at 400 nM.
For the compound `O=C(O)[C@@H]1Cc2ccccc2CN1S(=O)(=O)c1ccc(-c2ccc(F)cc2)cc1`, the Selectivity in experiment [1] was determined as 0.4. Also, the IC50 at Stromelysin-1 came out at 10000 nM l-1.
For the compound `CSc1nccc(-c2ccc(S(=O)(=O)N3Cc4ccccc4CC3C(=O)NO)s2)n1` (configuration not stated), the results for the IC50 against Neutrophil collagenase and at Stromelysin-1 (read-out: IC50) were 20 nM and 2000 nM, respectively. Also, the log10(IC50 MMP-3/IC50 MMP-8) in experiment [2] stood at 2.
For `COc1ccc(S(=O)(=O)N2Cc3cc(NC(=O)[C@H](C)NC(=O)OC(C)(C)C)ccc3CC2C(=O)NO)cc1` (some centres not stated), in that order: 2 nM, 20 nM and 1.
For `O=C(NO)C1Cc2ccccc2CN1S(=O)(=O)c1ccc(N2CCOCC2)cc1` (configuration not stated), in that order: 100 nM, 300 nM and 0.48.
As for `O=C(NO)C1Cc2ccccc2CN1S(=O)(=O)c1ccc(C(F)(F)F)cc1` (configuration not stated), the IC50 against Neutrophil collagenase is 50 nM; on Stromelysin-1 (read-out: IC50) it was 500 nM. In addition, in experiment [2], the log10(IC50 MMP-3/IC50 MMP-8) amounted to 1.
With `O=C(NO)C1Cc2ccccc2CN1S(=O)(=O)c1cc(S(=O)(=O)c2ccccc2)cs1` (configuration not stated), the results for the IC50 against Neutrophil collagenase and on Stromelysin-1 were 2000 nM and 10000 nM l-1, respectively. Further, the log10(IC50 MMP-3/IC50 MMP-8) in experiment [2] worked out at 0.7.
For the compound `COc1ccc(S(=O)(=O)N2Cc3cc(NC(=O)[C@H](CC(=O)OC(C)(C)C)NC(=O)Cc4ccccc4)ccc3CC2C(=O)NO)cc1` (some centres not stated), the IC50 stood at 10 nM against Neutrophil collagenase and 40 nM on Stromelysin-1 (read-out: IC50). In experiment [2], the log10(IC50 MMP-3/IC50 MMP-8) stood at 0.6.
For `CN(C)c1cccc2c(S(=O)(=O)N3Cc4ccccc4CC3C(=O)NO)cccc12` (configuration not stated), in that order: 200 nM, 400 nM and 0.3.
